Measurements: patent US10801071B2, “TGF(β)-MIR200-MIG6 pathway and its use in the treatment of cancer as an indicator of resistance to EGFR inhibitors” (THE JOHNS HOPKINS UNIVERSITY, priority 2014, dated 2020)

Columns and labels:
[1] = test system: JHU028 and H1703 erlotinib-resistant cell lines; test: Cell viability assay, erlotinib sensitivity after TGFβ blockade; type: cell-based, human; settings: TGFβ plus inhibitor (SB-431542 10 μM or TGFβ RII/Fc 20 ng/ml) 7 days, then 1 μM erlotinib 72 hours
Method: (§1) Two erlotinib-resistant cell lines (JHU028 and H1703) were treated with TGFβ (2 ng/ml) alone or in combination with SB-431542 (10 μM) for 7 days. A. Cell lysates were collected and subjected to immunoblot analysis with indicated antibodies. B. Levels of miR200c and miR205 were measured and relative expression is presented as ΔΔCt. C. […] Cell viability was assayed and values were set at 100% for untreated controls.
Cell viability assay. Relative cell viability was determined using an Alamar Blue assay as outlined by the manufacturer (AbDSerotec, Raleigh, N.C.). New media containing 1/10 volume of Alamar Blue reagent was added to the wells and cells were incubated at 37° C. for 1 hour. Fluorescence (545 nm excitation, 590 nm emission wavelengths) was measured using a SpectraMax Plus384 fluorometer (Sunnyvale, Calif.). Cell viability was calculated relative to an untreated culture of cells incubated in parallel.
(§2) Autocrine or paracrine TGF3 signaling is required for the maintenance of the mesenchymal state. Blockage of this signaling can inhibit or reverse EMT by upregulating miR200 and subsequently downregulating ZEB1/2 (28-31). As a corollary to this observation, over-expression of miR-200c restores the sensitivity of resistant NSCLC cells to the anti-EGFR antibody cetuximab. […]

miR200c and miR205 = test: Quantitative real-time PCR for miR200c and miR205 after TGFβ blockade; type: cell-based, human; settings: H1703 and JHU028 cells, TGFβ (2 ng/ml) plus SB-431542 (10 μM) for 7 days
Method: as §1
(§3) Quantitative real-time PCR for miRNA. RNA from cultured cells was extracted using the mirVana™ Kit (Ambion, Austin, Tex.). Total RNA from fresh frozen tumors was isolated using the Trizol reagent (Invitrogen, Carlsbad, Calif.). Specific quantitative real-time PCR was carried out using TaqMan MicroRNA Assays for miR200a, miR200b, miR200c, miR205 and control RNU6b (Applied Biosystems, Foster City, Calif.) on a 7900HT detector (Applied Biosystems, Foster City, Calif.).
as §2

[2] = test system: AKT phosphorylation and Mig6 expression; test: Immunoblot analysis of AKT phosphorylation and Mig6 after TGFβ blockade; type: cell-based, human; settings: H1703 and JHU028 cells, TGFβ (2 ng/ml) plus SB-431542 (10 μM) for 7 days
Method: as §1
(§4) Antibodies and immunoblot analysis. Pelleted cells were lysed on ice by adding RIPA lysis buffer (Thermo Scientific, Rockford, Ill.) supplemented with protease and phosphatase inhibitors (Roche, Basel, Switzerland). Protein concentrations were determined by the BCA method and lysates diluted in SDS sample buffer (Bio-Rad, Hercules, Calif.) prior to SDS-PAGE. Anti-Mig6 antibody was a gift from Dr. Ferby (Nature medicine. 2006; 12:568-73). β-actin was obtained from Abcam (Cambridge, Mass.). All other antibodies were obtained from Cell Signaling (Beverly, Mass.). Secondary horseradish peroxidase (HRP)-conjugated antibodies were from KPL (Gaithersburg, Md.) and signals developed using West-Pico chemiluminescence substrate (Thermo Scientific). ImageJ (ver 1.46) software was used to quantify immunoblot signals on exposed films.
Autocrine or paracrine TGF3 signaling is required for the maintenance of the mesenchymal state. […]

Mig6 = test: Immunoblot analysis of Mig6 after inhibitor exposure in parental and TGFβ-induced H358 cells; type: cell-based, human; settings: 24 hours exposure
Method: A. Protein lysates were extracted from indicated cell lines Immunoblot analysis was performed with antibodies against E-cadherin, vimentin and β-actin. […] C. […] Cells were collected at different time points and Immunoblot analysis was performed with indicated antibodies. […] Values were set at 100% for untreated controls. […] F. Protein lysates were extracted from H358 cells treated with TGFβ1 or control vehicle for 21 days and immunoblot analysis was performed with antibodies against indicated RTKs. β-actin was used as a loading control.
as §4, with “films. […]” for “films.”

[3] = test system: directly xenografted human NSCLC tumors; test: Erlotinib response of directly xenografted primary human tumors in nude mice; type: in vivo; settings: lung tumors CTG-0167, CTG-0502, CTG-0199 and CTG-0157 with low EGFR and Mig6 expression, Erlotinib 35 mg/kg
From the text: Xenograft generation. […] The animals were maintained in accordance to guidelines of the American Association of Laboratory Animal Care and the research protocol was approved by the Johns Hopkins University Animal Use and Care Committee.
We obtained 18 human NSCLCs, and 27 pancreatic tumors that were directly xenografted into nude mice. No erlotinib-sensitizing mutations in EGFR were detected in any of these tumors and there was no correlation of KRAS mutation with erlotinib response. For all models tested, miR200 levels were measured by quantitative RT-PCR and mRNA levels of Mig6 and EGFR were determined by Affymetrix expression array. […] Supporting this observation, an inverse correlation between miR200c and Mig6 expression levels was noted across the pancreatic models (data not shown). […] Unlike the limited predictive ability of the Mig6/EGFR ratio in such tumors with low EGFR expression, the Mig6(mRNA)/miR200c ratio was still able to correctly identify three out of four of these lung tumors with low EGFR mRNA as erlotinib-resistant. Therefore, the ratio of Mig6 to miR200 was a reliable predictive biomarker of the primary tumors response to EGFR TKIs regardless of their EGFR status.

[4] = test system: SCC-S, H358 and H292 erlotinib-sensitive epithelial cell lines; test: TGFβ-induced EMT, immunoblot of EMT markers and kinases; type: cell-based, human
Method: FIGS. 2A-2F depict that increased production of TGFβ induces an EMT-associated kinase switch which promotes erlotinib-resistance of tumor cells. A. Protein lysates were extracted from indicated cell lines Immunoblot analysis was performed with antibodies against E-cadherin, vimentin and β-actin. B. Tumor cell supernatants of 25 cancer cell lines shown in A were collected and differential levels of TGFβ production were analyzed by ELISA. C. […] Cells were collected at different time points and Immunoblot analysis was performed with indicated antibodies. […] Values were set at 100% for untreated controls. […]
Antibodies and immunoblot analysis. […] Protein concentrations were determined by the BCA method and lysates diluted in SDS sample buffer (Bio-Rad, Hercules, Calif.) prior to SDS-PAGE. […] ImageJ (ver 1.46) software was used to quantify immunoblot signals on exposed films.
Increased production of TGFβ induces an EMT-associated kinase switch that promotes erlotinib-resistance of tumor cells. […] To test whether TGFβ can promote this kinase switch, levels of phospho IGFR, PDGFR, FGFR and FAK kinases were assessed in response to treatment of erlotinib-sensitive cells (H358, H292 and SCC-S) with TGFβ1 for 21 days.

[5] = test system: miR200 family members (200a, 200b, 200c and 205); test: Real-time PCR of miR200 family after exposure to TGFβ; type: cell-based, human; settings: SCC-S, H358 and H292 cells, exposure for 21 days
Method: RNA was extracted and expression levels of miR200a, miR200b, miR200c and miR205 were quantified by real-time PCR. B. RNA was extracted from four sensitive/resistant cancer cell lines pairs. Levels of miR200a, miR200b, miR200c and miR205 were measured and relative expression is presented as average fold change of each miRNA in erlotinib-sensitive cell lines relatively to that in resistant cells, which was given a value 1. […] Relative quantification of miRNA expression was performed by using RNU6b as an internal control. The results are presented as expression average of each miRNA in erlotinib-sensitive cell lines relatively to that in erlotinib-resistant cells.
as §3
We next examined changes in miR200 levels in erlotinib-sensitive (SCC-S) and erlotinib-resistant (SCC-R) isogenic H&N cell lines.

## NC(=O)c1ccc(-c2nc(-c3ccc4c(c3)OCO4)c(-c3ccccn3)[nH]2)cc1 [SB-431542]
[1]
  sensitivity of tumor cells to erlotinib: increased the sensitivity of tumor cells to erlotinib
miR200c and miR205
  miR200c levels: significant increase
  miR205 levels: significant increase
[2]
  AKT phosphorylation: downregulation
  Mig6 expression: downregulation

## N#CC(=C(/N)Sc1ccccc1N)/C(C#N)=C(\N)Sc1ccccc1N [U0126]
Mig6
  basal expression of Mig6: reduced basal expression of Mig6

## C#Cc1cccc(Nc2ncnc3cc(OCCOC)c(OCCOC)cc23)c1 [erlotinib]
[3]
  erlotinib response of lung tumor xenografts: erlotinib-resistant
Mig6
  basal expression of Mig6: reduced basal expression of Mig6

## TGFβ
[4]; time course 1-21 days, TGF-β1 or TGF-β3, SCC-S, H358 and H292 cells
  EMT markers (loss of E-cadherin and upregulation of vimentin): complete EMT by day 14
[5]
  expression of the miR200 family members (200a, 200b, 200c and 205): significantly reduced

## TGFβ1: TGFβ isoform used to treat erlotinib-sensitive cells for 21 days
[4]; H358, H292 and SCC-S cells, TGFβ1 for 21 days, compared to untreated counterparts
  levels of phospho IGFR, PDGFR, FGFR and FAK kinases: significantly greater activity
